According to patent publication US20010044151A1, “Ligands for modulating the expression of exogenous genes via an ecdysone receptor complex” (priority 1998, published 2001):

Target: T1, VgEcR and RXR heterodimeric receptor (pVgRXR) with pIND/luc in CHO cells (Drosophila melanogaster, UniProt P34021, E282G/G283S/G286V)
T1 construct: host or cells: CHO cells (ATCC CCL-61), transiently transfected or stably transformed with pVgRXR
T1 sequence (P34021 1-878 E282G/G283S/G286V): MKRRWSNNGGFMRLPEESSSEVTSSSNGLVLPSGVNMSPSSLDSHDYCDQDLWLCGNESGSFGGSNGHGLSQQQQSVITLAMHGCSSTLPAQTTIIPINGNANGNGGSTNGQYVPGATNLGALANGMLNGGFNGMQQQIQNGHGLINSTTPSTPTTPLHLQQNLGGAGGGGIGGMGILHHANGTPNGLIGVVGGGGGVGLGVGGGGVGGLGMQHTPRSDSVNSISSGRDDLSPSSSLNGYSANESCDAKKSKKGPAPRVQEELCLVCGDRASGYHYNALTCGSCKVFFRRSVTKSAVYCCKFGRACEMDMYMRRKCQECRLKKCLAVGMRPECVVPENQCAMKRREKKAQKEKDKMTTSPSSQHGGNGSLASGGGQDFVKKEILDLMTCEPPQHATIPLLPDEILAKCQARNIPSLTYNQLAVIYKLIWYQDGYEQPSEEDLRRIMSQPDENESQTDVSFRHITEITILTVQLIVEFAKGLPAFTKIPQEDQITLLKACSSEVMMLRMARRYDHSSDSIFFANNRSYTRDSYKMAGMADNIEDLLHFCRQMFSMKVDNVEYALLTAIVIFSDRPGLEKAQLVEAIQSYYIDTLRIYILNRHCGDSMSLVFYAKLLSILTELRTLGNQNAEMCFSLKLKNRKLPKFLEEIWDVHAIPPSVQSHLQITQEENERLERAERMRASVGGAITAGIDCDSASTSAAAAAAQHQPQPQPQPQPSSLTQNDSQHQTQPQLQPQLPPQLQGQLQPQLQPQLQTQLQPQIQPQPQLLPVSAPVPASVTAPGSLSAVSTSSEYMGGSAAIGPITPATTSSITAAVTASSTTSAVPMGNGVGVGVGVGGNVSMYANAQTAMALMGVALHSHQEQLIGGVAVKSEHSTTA
T1 sequence (P19793 1-462 partner): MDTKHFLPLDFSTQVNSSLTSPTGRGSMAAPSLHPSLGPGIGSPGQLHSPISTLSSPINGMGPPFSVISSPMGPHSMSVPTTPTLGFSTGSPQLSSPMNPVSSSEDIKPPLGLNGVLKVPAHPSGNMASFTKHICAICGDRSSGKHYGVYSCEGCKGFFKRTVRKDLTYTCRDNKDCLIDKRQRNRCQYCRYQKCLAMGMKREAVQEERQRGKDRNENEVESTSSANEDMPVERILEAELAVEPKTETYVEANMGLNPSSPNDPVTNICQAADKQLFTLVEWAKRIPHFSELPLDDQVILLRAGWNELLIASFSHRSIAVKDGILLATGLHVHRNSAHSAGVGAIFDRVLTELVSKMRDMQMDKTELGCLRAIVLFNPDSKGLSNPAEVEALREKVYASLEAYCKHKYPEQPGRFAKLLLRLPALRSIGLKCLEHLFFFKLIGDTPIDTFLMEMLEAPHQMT
Experiment: Luciferase gene activation in transiently transfected CHO cells
Format: cell-based
Settings: ligand 10 μM; for Luciferase activity: average of duplicate samples, no ligand = 42; for Induction Ratio (RLU in presence and absence of the ligand): luciferase
Excerpt: pVgRXR (Invitrogen Corp., Carlsbad, Calif.) is an […] plasmid that expresses both VgEcR and RXR to form a modified heterodimeric nuclear receptor (see No, D., et. al., (1996) Proc. Natl. Acad. Sci. USA, 93, 3346-3351). The ecdysone receptor (VgEcR) is derived from the natural Drosophila ecdysone receptor and modified to contain the VP16 transactivation domain (see Cress, W. D., and Triezenberg, S. J. (1991), Science 251, 87-90; Sadowski, I., et. al (1988) Nature 335, 563-564; Triezenberg, S. J et. al., (1988), Genes Dev 2, 718-729; Triezenberg, S. J., et. al., (1988), Genes Dev 2, 730-742). RXR as the mammalian homologue of USP (ultraspiracle), the natural partner to the Drosophila ecdysone receptor (see Yao, T. -P., et. al., (1993), Nature 366, 476-479, Yao, T. -P., et. al., (1992), Cell 71, 63-72). The P-box region of the VgEcR DNA binding domain was modified to recognize the hybrid ecdysone response element that consists of one half-site from the gluccorticoid response element (see Umesono, K., and Evans, R. M. (1989), Cell 57, 1139-1146) and one half-site from the natural ecdysone response element. This hybrid response element reduces any possible interaction with the farsenoid X receptor that may bind the natural ecdysone responsive element (EcRE). The cytomegalovirus enhancer-promoter drives expression of VgEcR, and the Rous sarcoma virus promoter drives expression of RXR. The vector pIND (Invitrogen Corp) is a 5024 bp vector based on pcDNA3.1. It contains five hybrid E/GREs recognized by the modified ecdysone receptor expressed from pVgRXR and a minimal heat shock promoter (see Yao, T. P., et. al., (1993), Nature, 366, 476-479). pIND/lacZ (Invitrogen Crop.) is a 8170 bp plasmid that contains the β-galactosidase gene as a reporter enzyme. Cotransfection of pIND/lacZ and pVgRXR results in the induction of β-galactosidase expression upon addition of ecdysone agonists such as muristerone A. The reporter plasmid pIND/luc was constructed by subcloning the firefly luciferase gene from pGL3 (Promega/E1741) as a Nhe I-BamHI fragment into pIND, also digested with Nhe I and BamHI.
CHO cells (ATCC #CCL-61) were maintained by F-12 Nutrient mixture (Ham's media) (Gibco/BRL, 11765-054) supplemented with 10% fetal bovine serum, (FBS, complete medium; Gibco/BRL, 16000-036). These cells were maintained at 37° C. in 5% CO2 in 95% atmospheric air.
The CHO cells were seeded into 12-well tissue culture plates at a concentration of 0.5×10^5 cells per ml per well. The lipid Pfx-8 (Invitrogen, T930-18) was used to transiently transfect the ecdysone inducible expression system (Invitrogen catalog number K1000-01). The ecdysone inducible expression system consists of pVgRXR, encoding the receptor subunits, and pIND/lacZ or pIND/luc, containing the response element and a reporter gene encoding β-galactosidase or luciferase respectively. Twenty-four hours after seeding cells, the lipid/DNA solution was prepared by 0.5 mg/ml of VgRXR and 0.5 mg/ml pIND/lacZ or pIND/luc DNAs in sterile water. Thirty-six μl of Pfx-8 was diluted in a sterile 17×100 mm polystyrene tube containing 1.5 ml Opti-MEM medium (Gibco/BRL, 31985). Six μl of the plasmid DNA stock was mixed with 1.5 ml of Opti-MEM medium in another polystyrene tube. The DNA and the lipid solutions were combined to make 3 ml of transfection solution (enough for one set of triplicate samples). Cells were washed with phosphate buffered solution (PBS; Gibco/BRL, 14190-144) three times by aspirating medium from the cells. One ml transfection solution was added per well. Cells were incubated for four hours, and the transfection medium replaced with the same volume of complete medium. Cells were incubated for an additional 20 hours.
Stock solutions (10^−2 M) were prepared for muristerone A and the non-steroidal ligands of the present invention in ethanol and acetone respectively, and stored at −20° C. […]

Row | SMILES | Luciferase activity | Induction Ratio (RLU in presence and absence of the ligand)
1 | CCc1ccc(C(=O)NN(C(=O)c2cc(C)cc(C)c2)C(C)(C)C)cc1 [CE-1, N-(4-ethylbenzoyl)-N′-(3,5-dimethylbenzoyl)-N′-tert-butyl-hydrazine, reference compound] | 89 RLU | 2
2 | COc1cccc(C(=O)NN(C(=O)c2cc(C)cc(C)c2)C(C)(C)C)c1C [Ligand 3] | 324 RLU | 8
3 | CC(C)CC[C@@H](O)[C@](C)(O)[C@H]1CC[C@@]2(O)C3=CC(=O)[C@]4(O)C[C@@H](O)[C@@H](O)C[C@]4(C)[C@H]3[C@H](O)C[C@]12C [CE-3, muristerone A, reference compound] | 316 RLU | 8
4 | CCc1c(OC)cccc1C(=O)NN(C(=O)c1cc(F)cc(F)c1)C(C)(C)C [Ligand 4] | 251 RLU | 6
5 | Cc1cc(C)cc(C(=O)N(NC(=O)c2ccc3c(c2C)OCCO3)C(C)(C)C)c1 [Ligand 2] | 204 RLU | 5
6 | CCOc1cccc(C(=O)NN(C(=O)c2cc(C)cc(C)c2)C(C)(C)C)c1CC [Ligand 12] | 305 RLU | 7
7 | CC(C)CC[C@@H](O)[C@](C)(O)[C@H]1CC[C@@]2(O)C3=CC(=O)[C@@H]4C[C@@H](O)[C@@H](O)C[C@]4(C)[C@H]3CC[C@]12C [CE-4, ponasterone A, reference compound] | 418 RLU | 10
8 | CCc1c(OC)cccc1C(=O)NN(C(=O)c1cccc(OC)c1)C(C)(C)C [Ligand 1] | 275 RLU | 7
9 | CC(C)(C)N(NC(=O)c1ccccc1)C(=O)c1ccccc1 [CE-2, 1,2-dibenzoyl-1-tert-butyl-hydrazine, reference compound] | 36 RLU | 1
10 | CCc1c(OC)cccc1C(=O)NN(C(=O)c1cc(C)cc(C)c1)C(C)(C)C [Ligand 5] | 313 RLU | 8
11 | CCc1c(OC)cccc1C(=O)NN(C(=O)c1cc(Cl)cc(Cl)c1)C(C)(C)C [Ligand 13] | 226 RLU | 5
